Values joined by “and” are separate entries in the source; they are usually repeats but may differ in a detail not shown here. Equal entries are not always repeated.
Tested on: normal human dermal fibroblasts (NHDF)
Assay: Collagen synthesis boosting activity, Sirius Red staining of collagen in fibroblast monolayer (96 well)
Type: cell-based
Details: 48 h incubation
Procedure: Method for determining the collagen synthesis boosting activity of selected substances of natural or synthetic origin.
Fibroblasts are responsible for collagen synthesis in the dermis layer of the skin. The test system involves culturing normal human dermal fibroblasts (NHDF) in a “monolayer” culture in 96 well MTPs, incubating them over a defined period with test substances and then determining the increase in collagen qualitatively by a staining method.
The principle of the assay is based on histological, specific staining of the soluble collagen (predominantly type I and III collagen) with the assistance of the dye Sirius Red (Direct Red 80). Sirius Red is an anionic dye having sulfonic acid groups attached to its side chains. These sulfonic acid groups react with the side chain groups of the amino acids (proline, hydroxyproline, lysine and hydroxylysine) predominantly occurring in collagen, it being necessary for an intact collagen structure to be present.
The model used for the assay design is the procedure described in B. J. Walsh et al., Analytical Biochemistry 203, 187-190 (1992) for the quantitative determination of collagen on the 96 well scale. […]
After a 24 h adaptation phase for the NHDF, the cells are incubated (37° C., 5% CO2) for 48 h with the incubation solution and corresponding control solutions (solvent and blank). […] The absorption of the resultant dye solution can be determined photometrically at 540 nm.
Thanks to the linear relationship between collagen content and the OD values arising from staining, the increase in OD is determined for qualitative assessment of the collagen synthesis boosting effect. To this end, the mean and standard deviations of the controls and the test samples are calculated and then a background or blank correction is made. […]
The synergy index (SI) values of the ternary mixtures according to the invention were calculated according to Kull (literature: F. C. Kull et al, Applied Microbiology vol. 9, p. 538-541 (1961); D. C. Steinberg, Cosmetics & Toiletries vol. 115(11), 59-62 (2000) by means of the following equation. […]

[1] = usage concentration 1.020 mg/ml

O=C1O[C@H]([C@@H](O)CO)C([O-])=C1OP(=O)([O-])[O-].O=C1O[C@H]([C@@H](O)CO)C([O-])=C1OP(=O)([O-])[O-].[Mg+2].[Mg+2].[Mg+2] [Magnesium ascorbyl phosphate (Bio172), Magnesium ascorbyl phosphate]
Collagen synthesis boost [%], relative to untreated control (usage concentration 0.362 mg/ml): 66.97% and 67.44%

O=C1O[C@H]([C@@H](O)CO)C([O-])=C1OP(=O)([O-])[O-].O=C1O[C@H]([C@@H](O)CO)C([O-])=C1OP(=O)([O-])[O-].[Mg+2].[Mg+2].[Mg+2] [Magnesium ascorbyl phosphate (Bio1300/1), Magnesium ascorbyl phosphate]
Collagen synthesis boost [%], relative to untreated control [1]: 141.13%

O=C1O[C@H]([C@@H](O)CO)C([O-])=C1OP(=O)([O-])[O-].[Na+].[Na+].[Na+] [Sodium ascorbyl phosphate (Bio1586), Sodium ascorbyl phosphate]
Collagen synthesis boost [%], relative to untreated control [1]: 144.57%

Source: US20090232915A1, “MIXTURES WITH A COLLAGEN SYNTHESIS BOOSTING ACTION” (SYMRISE GmbH & Co., KG, priority 2008, published 2009)
